Read-outs that look alike come from different tables or passages of the source.
Tests used:
[1] = system: various HIV isolates (NL-43, JRCSF or 89.6); assay: P24 quantification, summary statements over all isolates; format: cell-based, HIV-1; details: Figures 3-5; PBMC infected with NL-43, JRCSF or 89.6
Method: (§1) PBMCs were treated with various concentrations of CAPE, MC and PEDMC provided in Example 2 and simultaneously infected with […] and macrophage and T cells dual tropic (89.6) HIV-1 isolates. The next day, the added compounds were removed by washing methods or maintained at the same concentration. Samples were divided into two groups and the upernatants of the culture medium were collected at the 3 and 7 days after infection, respectively. The use of P24 EIA Reagent Kit of Abbott Laboratory compares the concentrations of viral P24 antigen with or without the compounds tested.

[2] = system: Peripheral Blood Mononuclear Cells (PBMC); details: for The numbers of dead cells in 400 cells' count / % viability: 48 hours; for The numbers of dead cells in 400 cells' count: control 9 dead cells; for % viability: viable cells versus control (391);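 for all read-outs here: trypan blue dye exclusion, cells stained and counted from quadruplicate dishes, DMSO vehicle kept under 0.5%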
Method: Viability of the cells was assayed by the trypan blue dye exclusion method. […] The concentration of DMSO was adjusted to be less than 0.5%. Cells from quadruplicated dishes were washed once with Hank's Balanced Salt Solution (HBSS). According to the process, the floating dead cells will be separated from the live monolayer cells. Then the cells were stained with trypan blue and counted. The total number of viable cells in the control group was considered as 100% viability and the agent-treated cells were compared with the control group for the determination of % viability. The % viability of agent-treated cells was calculated from the total number of viable cells in the control group and in the agent-treated group.

[3] = system: macrophage and T cells dual tropic (89.6); assay: P24 quantification (P24 EIA) in infected PBMCs, 89.6; format: cell-based, HIV-1; details: PBMC; for concentrations of the viral P24 antigen, 89.6(+): (+) original concentration of compound maintained after washing; for concentrations of the viral P24 antigen, 89.6(-): (-) compound removed after washing
Method: as §1

T cells-tropic (JRCSF) = assay: P24 quantification (P24 EIA) in infected PBMCs, JRCSF; format: cell-based, HIV-1; details: PBMC; for concentrations of the viral P24 antigen, JRCSF(+): (+) original concentration of compound maintained after washing; for concentrations of the viral P24 antigen, JRCSF(-): (-) compound removed after washing
Method: as §1

cells = assay: Cellular activities in microculture tetrazolium (MTT) tests; format: cell-based
Method: The cellular activities were tested according to method as described in Alley M.C. et al, Cancer Res. 1988; 48(3):589-601. The principle of the method resides in that live cells can reduce MTT., i.e., 3-[4,5-dimethylthiazol-2-yl]-2,5-diphenyltetrazolium bromide)(tetrazolium salt) to formazan crystal through the dehydrogenase metabolism in Mitochondria. The crystal was dissolved in propanol and OD values were determined at 570 nm. The OD values can indicate the numbers of the live cells. The growth conditions of the cells were observed firstly. The cells were diluted to 2x10^4 cells/ml. 100µl sample taken by micropipet was placed in a 96-well plate. The plate was cultured for 24 hours as 37°C and 100µl of the compounds to be tested, which were prepared in medium, were added in each well. […] After culture for 4 hours, supernatant liquid was absorbed and 100 µl DMSO and 10µl /well was added. Each well was homogeneously mixed. The absorbance was determined at 570 nm.

[4] = system: macrophage-tropic (NL-43); assay: P24 quantification (P24 EIA) in infected PBMCs, NL-43; format: cell-based, HIV-1; details: PBMC; for concentrations of the viral P24 antigen, NL43(+): (+) original concentration of compound maintained after washing; for concentrations of the viral P24 antigen, NL43(-): (-) compound removed after washing
Method: as §1

COc1ccc(C=CC(=O)OCCc2ccccc2)cc1OC [PEDMC, phenethyl dimethyl caffeate]
viral replications (result in words) [1]: significantly inhibited viral replications | The numbers of dead cells in 400 cells' count ([2]; 0.1 µM): 11 | % viability ([2]; 0.1 µM): 389/391 (99.5%) | The numbers of dead cells in 400 cells' count ([2]; 0.5 µM): 10 | % viability ([2]; 0.5 µM): 390/391 (99.7%) | The numbers of dead cells in 400 cells' count ([2]; 1 µM): 7 | % viability ([2]; 1 µM): 393/391 (100.5%) | The numbers of dead cells in 400 cells' count ([2]; 5 µM): 11 | % viability ([2]; 5 µM): 389/391 (99.5%) | The numbers of dead cells in 400 cells' count ([2]; 10 µM): 9 | % viability ([2]; 10 µM): 391/391 (100%) | The numbers of dead cells in 400 cells' count ([2]; 25 µM): 8 | % viability ([2]; 25 µM): 392/391 (100.3%) | The numbers of dead cells in 400 cells' count ([2]; 50 µM): 10 | % viability ([2]; 50 µM): 390/391 (99.7%) | The numbers of dead cells in 400 cells' count ([2]; 100 µM): 10 | % viability ([2]; 100 µM): 390/391 (99.7%) | The numbers of dead cells in 400 cells' count ([2]; 200 µM): 7 | % viability ([2]; 200 µM): 393/391 (100.5%) | The numbers of dead cells in 400 cells' count ([2]; 400 µM): 6 | % viability ([2]; 400 µM): 394/391 (100.8%) | viabilities of PBMC under high-dose versus low-dose treatments (result in words) ([2]; high dose up to 400 µM compared with 0.1-10 µM): no substantial differences | concentrations of the viral P24 antigen, 89.6(+) ([3]; 0.1 µM): 1000 unit | concentrations of the viral P24 antigen, 89.6(-) ([3]; 0.1 µM): 1000 unit | concentrations of the viral P24 antigen, 89.6(+) ([3]; 0.5 µM): 1000 unit | concentrations of the viral P24 antigen, 89.6(-) ([3]; 0.5 µM): 1000 unit | concentrations of the viral P24 antigen, 89.6(+) ([3]; 1 µM): 1000 unit | concentrations of the viral P24 antigen, 89.6(-) ([3]; 1 µM): 1000 unit | concentrations of the viral P24 antigen, 89.6(+) ([3]; 5 µM): 1000 unit | concentrations of the viral P24 antigen, 89.6(-) ([3]; 5 µM): 1000 unit | concentrations of the viral P24 antigen, 89.6(+) ([3]; 10 µM): 965.48 unit | concentrations of the viral P24 antigen, 89.6(-) ([3]; 10 µM): 932.67 unit | concentrations of the viral P24 antigen, 89.6(+) ([3]; 25 µM): 886.42 unit | concentrations of the viral P24 antigen, 89.6(-) ([3]; 25 µM): 927.4 unit | concentrations of the viral P24 antigen, 89.6(+) ([3]; 50 µM): 747.3 unit | concentrations of the viral P24 antigen, 89.6(-) ([3]; 50 µM): 681.42 unit | concentrations of the viral P24 antigen, 89.6(+) ([3]; 100 µM): 238.49 unit | concentrations of the viral P24 antigen, 89.6(-) ([3]; 100 µM): 647 unit | concentrations of the viral P24 antigen, 89.6(+) ([3]; 200 µM): 187.59 unit | concentrations of the viral P24 antigen, 89.6(-) ([3]; 200 µM): 539.82 unit | concentrations of the viral P24 antigen, 89.6(+) ([3]; 400 µM): 84.85 unit | concentrations of the viral P24 antigen, 89.6(-) ([3]; 400 µM): 494.91 unit | concentrations of the viral P24 antigen, JRCSF(+) (T cells-tropic (JRCSF); 0.1 µM): 1000 unit | concentrations of the viral P24 antigen, JRCSF(-) (T cells-tropic (JRCSF); 0.1 µM): 1000 unit | concentrations of the viral P24 antigen, JRCSF(+) (T cells-tropic (JRCSF); 0.5 µM): 1000 unit | concentrations of the viral P24 antigen, JRCSF(-) (T cells-tropic (JRCSF); 0.5 µM): 1000 unit | concentrations of the viral P24 antigen, JRCSF(+) (T cells-tropic (JRCSF); 1 µM): 1000 unit | concentrations of the viral P24 antigen, JRCSF(-) (T cells-tropic (JRCSF); 1 µM): 1000 unit | concentrations of the viral P24 antigen, JRCSF(+) (T cells-tropic (JRCSF); 5 µM): 1000 unit | concentrations of the viral P24 antigen, JRCSF(-) (T cells-tropic (JRCSF); 5 µM): 1000 unit | concentrations of the viral P24 antigen, JRCSF(+) (T cells-tropic (JRCSF); 10 µM): 1000 unit | concentrations of the viral P24 antigen, JRCSF(-) (T cells-tropic (JRCSF); 10 µM): 1000 unit | concentrations of the viral P24 antigen, JRCSF(+) (T cells-tropic (JRCSF); 25 µM): 1000 unit | concentrations of the viral P24 antigen, JRCSF(-) (T cells-tropic (JRCSF); 25 µM): 1000 unit | concentrations of the viral P24 antigen, JRCSF(+) (T cells-tropic (JRCSF); 50 µM): 1000 unit | concentrations of the viral P24 antigen, JRCSF(-) (T cells-tropic (JRCSF); 50 µM): 1000 unit | concentrations of the viral P24 antigen, JRCSF(+) (T cells-tropic (JRCSF); 100 µM): 892.45 unit | concentrations of the viral P24 antigen, JRCSF(-) (T cells-tropic (JRCSF); 100 µM): 1000 unit | concentrations of the viral P24 antigen, JRCSF(+) (T cells-tropic (JRCSF); 200 µM): 452.46 unit | concentrations of the viral P24 antigen, JRCSF(-) (T cells-tropic (JRCSF); 200 µM): 1000 unit | concentrations of the viral P24 antigen, JRCSF(+) (T cells-tropic (JRCSF); 400 µM): 348.96 unit | concentrations of the viral P24 antigen, JRCSF(-) (T cells-tropic (JRCSF); 400 µM): 869.4 unit | MTT 24h, cellular activities (cells; 0.1 µM): 92.38 relative percentage | MTT 48h, cellular activities (cells; 0.1 µM): 97.31 relative percentage | MTT 24h, cellular activities (cells; 0.5 µM): 98.72 relative percentage | MTT 48h, cellular activities (cells; 0.5 µM): 98.72 relative percentage | MTT 24h, cellular activities (cells; 1 µM): 98.26 relative percentage | MTT 48h, cellular activities (cells; 1 µM): 105.28 relative percentage | MTT 24h, cellular activities (cells; 5 µM): 94.33 relative percentage | MTT 48h, cellular activities (cells; 5 µM): 104.07 relative percentage | MTT 24h, cellular activities (cells; 10 µM): 98.72 relative percentage | MTT 48h, cellular activities (cells; 10 µM): 98.08 relative percentage | MTT 24h, cellular activities (cells; 25 µM): 107.27 relative percentage | MTT 48h, cellular activities (cells; 25 µM): 98.78 relative percentage | MTT 24h, cellular activities (cells; 50 µM): 102.03 relative percentage | MTT 48h, cellular activities (cells; 50 µM): 97.15 relative percentage | MTT 24h, cellular activities (cells; 100 µM): 106.06 relative percentage | MTT 48h, cellular activities (cells; 100 µM): 97.74 relative percentage | MTT 24h, cellular activities (cells; 200 µM): 97.93 relative percentage | MTT 48h, cellular activities (cells; 200 µM): 96.32 relative percentage | MTT 24h, cellular activities (cells; 400 µM): 94.8 relative percentage | MTT 48h, cellular activities (cells; 400 µM): 93.76 relative percentage | cellular activities in MTT tests (result in words) (cells; Figures 1 and 2, 24 and 48 hours): no substantial effects | concentrations of the viral P24 antigen, NL43(+) ([4]; 0.1 µM): 1000 unit | concentrations of the viral P24 antigen, NL43(-) ([4]; 0.1 µM): 1000 unit | concentrations of the viral P24 antigen, NL43(+) ([4]; 0.5 µM): 1000 unit | concentrations of the viral P24 antigen, NL43(-) ([4]; 0.5 µM): 1000 unit | concentrations of the viral P24 antigen, NL43(+) ([4]; 1 µM): 1000 unit | concentrations of the viral P24 antigen, NL43(-) ([4]; 1 µM): 1000 unit | concentrations of the viral P24 antigen, NL43(+) ([4]; 5 µM): 1000 unit | concentrations of the viral P24 antigen, NL43(-) ([4]; 5 µM): 1000 unit | concentrations of the viral P24 antigen, NL43(+) ([4]; 10 µM): 1000 unit | concentrations of the viral P24 antigen, NL43(-) ([4]; 10 µM): 1000 unit | concentrations of the viral P24 antigen, NL43(+) ([4]; 25 µM): 1000 unit | concentrations of the viral P24 antigen, NL43(-) ([4]; 25 µM): 1000 unit | concentrations of the viral P24 antigen, NL43(+) ([4]; 50 µM): 1000 unit | concentrations of the viral P24 antigen, NL43(-) ([4]; 50 µM): 1000 unit | concentrations of the viral P24 antigen, NL43(+) ([4]; 100 µM): 1000 unit | concentrations of the viral P24 antigen, NL43(-) ([4]; 100 µM): 1000 unit | concentrations of the viral P24 antigen, NL43(+) ([4]; 200 µM): 890.43 unit | concentrations of the viral P24 antigen, NL43(-) ([4]; 200 µM): 981.43 unit | concentrations of the viral P24 antigen, NL43(+) ([4]; 400 µM): 640.7 unit | concentrations of the viral P24 antigen, NL43(-) ([4]; 400 µM): 898.4 unit

Reference: patent EP1166782A2, “Anti-retroviral pharmaceutical compositions” (Yang, Chi-Chiang, priority 2000, dated 2002)
